From article PMC8537180, “Discovery of a Kojibiose Hydrolase by Analysis of Specificity-Determining Correlated Positions in Glycoside Hydrolase Family 65” (Molecules, 2021)
Read-outs that look alike come from different tables or passages of the source.

Columns and labels:
HoGP = molecular target: T1, HoGP (Halothermothrix orenii, UniProt B8D049); conditions: 50 mM MOPS pH 7.0
T1 construct: gene Hore_00420

MiGP = molecular target: T2, MiGP (Mageeibacillus indolicus, UniProt D3R1R5); assay: phosphomolybdate assay and HPAEC-PAD, synthesis direction; format: biochemical; conditions: acceptor, minor activity; donor 10 mM βGlc1P; 50 mM MOPS pH 7.0
T2 construct: gene HMPREF0868_0806; codon-optimized gene in pET21a, C-terminal His6-tag, expressed in E. coli BL21(DE3) agp-, Ni-NTA purified; GH65 subgroup 6
T2 sequence (D3R1R5 1-712): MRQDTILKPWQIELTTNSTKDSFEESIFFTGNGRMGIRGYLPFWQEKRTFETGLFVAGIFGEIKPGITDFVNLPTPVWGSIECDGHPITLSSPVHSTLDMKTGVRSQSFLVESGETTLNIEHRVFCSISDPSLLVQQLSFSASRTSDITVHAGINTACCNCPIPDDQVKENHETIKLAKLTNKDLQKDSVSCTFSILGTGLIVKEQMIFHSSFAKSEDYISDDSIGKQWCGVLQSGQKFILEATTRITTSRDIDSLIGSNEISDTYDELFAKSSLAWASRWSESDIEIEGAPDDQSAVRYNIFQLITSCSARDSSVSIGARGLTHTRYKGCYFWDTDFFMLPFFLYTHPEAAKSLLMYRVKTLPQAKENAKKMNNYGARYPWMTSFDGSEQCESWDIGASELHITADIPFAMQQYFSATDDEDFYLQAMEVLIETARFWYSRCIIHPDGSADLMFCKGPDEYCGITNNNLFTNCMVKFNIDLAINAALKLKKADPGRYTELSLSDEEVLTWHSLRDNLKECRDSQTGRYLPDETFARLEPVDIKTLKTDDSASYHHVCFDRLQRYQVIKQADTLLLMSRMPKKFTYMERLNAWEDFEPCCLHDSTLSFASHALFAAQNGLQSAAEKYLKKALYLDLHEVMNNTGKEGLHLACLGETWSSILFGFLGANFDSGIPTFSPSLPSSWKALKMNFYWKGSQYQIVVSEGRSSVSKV

TbGP = molecular target: T3, TbGP (Thermobispora bispora, UniProt D6Y6U5); assay: as above; format: biochemical; conditions: 50 mM MOPS pH 7.0, trehalose formed
T3 construct: gene Tbis_2887; codon-optimized gene in pET21a, C-terminal His6-tag, expressed in E. coli BL21(DE3) agp-, Ni-NTA purified; GH65 subgroup 1
T3 sequence (D6Y6U5 entry or part of it): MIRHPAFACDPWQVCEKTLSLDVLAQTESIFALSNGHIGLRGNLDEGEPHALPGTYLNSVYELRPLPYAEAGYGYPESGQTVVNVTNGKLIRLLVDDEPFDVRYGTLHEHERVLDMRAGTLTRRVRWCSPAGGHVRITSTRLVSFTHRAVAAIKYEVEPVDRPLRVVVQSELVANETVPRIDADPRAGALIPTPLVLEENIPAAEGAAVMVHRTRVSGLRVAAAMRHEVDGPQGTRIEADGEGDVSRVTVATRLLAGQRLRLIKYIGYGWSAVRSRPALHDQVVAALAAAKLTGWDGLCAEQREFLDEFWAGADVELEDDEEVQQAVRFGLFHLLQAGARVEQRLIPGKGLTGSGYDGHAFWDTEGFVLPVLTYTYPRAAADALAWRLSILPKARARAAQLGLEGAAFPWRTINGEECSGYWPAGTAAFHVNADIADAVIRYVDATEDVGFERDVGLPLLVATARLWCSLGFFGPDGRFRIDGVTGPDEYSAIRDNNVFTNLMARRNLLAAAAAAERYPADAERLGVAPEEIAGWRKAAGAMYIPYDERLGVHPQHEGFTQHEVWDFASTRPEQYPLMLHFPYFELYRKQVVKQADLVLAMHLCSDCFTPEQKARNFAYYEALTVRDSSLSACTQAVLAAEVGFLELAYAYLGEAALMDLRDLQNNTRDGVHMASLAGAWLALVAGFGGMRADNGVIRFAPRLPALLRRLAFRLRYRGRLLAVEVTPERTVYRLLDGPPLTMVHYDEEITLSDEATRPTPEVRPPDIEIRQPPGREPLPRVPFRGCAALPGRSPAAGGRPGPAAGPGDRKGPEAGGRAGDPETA

CaGP = molecular target: T4, CaGP (Caldithrix abyssi, UniProt H1XSN4); assay: as above; format: biochemical; conditions: 50 mM MOPS pH 7.0
T4 construct: gene Calab_2975; codon-optimized gene in pET21a, C-terminal His6-tag, expressed in E. coli BL21(DE3) agp-, Ni-NTA purified; GH65 subgroup 22
T4 sequence (H1XSN4 entry or part of it): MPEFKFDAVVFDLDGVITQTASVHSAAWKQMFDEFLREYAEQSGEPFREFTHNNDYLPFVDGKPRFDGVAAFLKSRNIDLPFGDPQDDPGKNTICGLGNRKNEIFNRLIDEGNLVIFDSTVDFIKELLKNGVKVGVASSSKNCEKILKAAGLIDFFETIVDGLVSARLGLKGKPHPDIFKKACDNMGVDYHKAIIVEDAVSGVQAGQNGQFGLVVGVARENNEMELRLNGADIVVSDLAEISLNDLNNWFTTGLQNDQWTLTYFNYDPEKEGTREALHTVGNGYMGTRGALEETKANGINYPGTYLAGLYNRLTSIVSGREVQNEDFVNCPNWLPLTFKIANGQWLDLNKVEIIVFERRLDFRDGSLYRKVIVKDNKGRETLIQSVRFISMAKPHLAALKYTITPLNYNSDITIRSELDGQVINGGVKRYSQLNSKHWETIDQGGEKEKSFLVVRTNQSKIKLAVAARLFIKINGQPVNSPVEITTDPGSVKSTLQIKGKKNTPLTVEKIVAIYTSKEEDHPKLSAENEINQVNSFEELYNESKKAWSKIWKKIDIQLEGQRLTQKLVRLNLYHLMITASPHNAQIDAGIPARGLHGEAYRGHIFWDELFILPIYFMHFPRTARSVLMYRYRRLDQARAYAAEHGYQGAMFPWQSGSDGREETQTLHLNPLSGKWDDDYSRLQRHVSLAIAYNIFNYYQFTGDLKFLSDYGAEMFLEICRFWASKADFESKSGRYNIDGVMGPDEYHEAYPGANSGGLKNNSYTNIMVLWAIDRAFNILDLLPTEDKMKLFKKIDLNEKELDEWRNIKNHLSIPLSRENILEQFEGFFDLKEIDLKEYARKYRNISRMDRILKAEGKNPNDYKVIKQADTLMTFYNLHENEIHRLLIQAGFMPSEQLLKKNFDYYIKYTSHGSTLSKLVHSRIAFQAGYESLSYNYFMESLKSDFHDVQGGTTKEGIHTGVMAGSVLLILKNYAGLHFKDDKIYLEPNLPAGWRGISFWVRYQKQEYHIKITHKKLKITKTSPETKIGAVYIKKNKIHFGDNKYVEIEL

ChGP = molecular target: T5, ChGP (Caldicellulosiruptor hydrothermalis, UniProt E4Q9G1); assay: as above; format: biochemical; conditions: acceptor; donor βGlc1P; 50 mM MOPS pH 7.0
T5 construct: gene Calhy_0070; codon-optimized gene in pET21a, C-terminal His6-tag, expressed in E. coli BL21(DE3) agp-, Ni-NTA purified; GH65 subgroup 4
T5 sequence (E4Q9G1 entry or part of it): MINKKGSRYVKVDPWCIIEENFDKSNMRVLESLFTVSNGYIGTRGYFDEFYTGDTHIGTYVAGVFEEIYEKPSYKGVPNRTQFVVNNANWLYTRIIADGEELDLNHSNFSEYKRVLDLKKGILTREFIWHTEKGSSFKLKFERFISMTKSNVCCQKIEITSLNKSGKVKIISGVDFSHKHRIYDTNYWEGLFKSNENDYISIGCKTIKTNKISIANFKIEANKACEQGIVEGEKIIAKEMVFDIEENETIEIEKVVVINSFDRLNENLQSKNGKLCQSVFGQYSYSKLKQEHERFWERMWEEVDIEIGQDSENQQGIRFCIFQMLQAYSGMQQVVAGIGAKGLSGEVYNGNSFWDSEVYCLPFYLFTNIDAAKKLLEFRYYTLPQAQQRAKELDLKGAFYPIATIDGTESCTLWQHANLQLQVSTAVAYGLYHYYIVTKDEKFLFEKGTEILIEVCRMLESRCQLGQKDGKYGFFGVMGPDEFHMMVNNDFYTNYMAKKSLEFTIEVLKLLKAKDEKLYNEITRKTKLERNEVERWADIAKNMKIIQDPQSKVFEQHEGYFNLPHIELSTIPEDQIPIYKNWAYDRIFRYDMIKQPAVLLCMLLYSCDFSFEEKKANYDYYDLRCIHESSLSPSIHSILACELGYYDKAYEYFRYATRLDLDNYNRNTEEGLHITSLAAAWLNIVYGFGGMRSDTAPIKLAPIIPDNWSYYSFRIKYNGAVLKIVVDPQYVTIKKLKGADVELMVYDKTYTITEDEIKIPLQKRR

T1 sequence (B8D049 whole entry): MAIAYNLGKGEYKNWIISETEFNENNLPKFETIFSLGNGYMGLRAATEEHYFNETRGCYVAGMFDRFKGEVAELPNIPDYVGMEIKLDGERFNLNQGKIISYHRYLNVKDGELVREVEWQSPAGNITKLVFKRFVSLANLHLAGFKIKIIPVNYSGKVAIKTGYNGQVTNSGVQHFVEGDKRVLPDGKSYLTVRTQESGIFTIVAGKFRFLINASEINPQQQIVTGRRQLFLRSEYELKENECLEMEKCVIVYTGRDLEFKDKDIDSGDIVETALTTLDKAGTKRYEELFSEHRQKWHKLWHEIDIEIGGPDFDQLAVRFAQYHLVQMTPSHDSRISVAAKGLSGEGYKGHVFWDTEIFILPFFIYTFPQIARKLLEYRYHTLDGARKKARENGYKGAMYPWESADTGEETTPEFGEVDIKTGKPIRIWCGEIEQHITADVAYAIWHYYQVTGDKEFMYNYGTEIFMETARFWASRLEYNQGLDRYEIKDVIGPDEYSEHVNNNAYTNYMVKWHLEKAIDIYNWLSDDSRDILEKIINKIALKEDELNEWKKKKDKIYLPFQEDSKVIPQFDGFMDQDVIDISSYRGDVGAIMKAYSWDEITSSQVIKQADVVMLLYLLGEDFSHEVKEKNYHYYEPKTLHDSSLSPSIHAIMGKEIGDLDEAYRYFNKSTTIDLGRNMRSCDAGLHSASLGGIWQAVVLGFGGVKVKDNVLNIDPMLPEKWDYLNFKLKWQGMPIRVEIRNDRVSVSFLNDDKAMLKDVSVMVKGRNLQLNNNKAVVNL

OC[C@H]1O[C@H](O[C@H]2C(O)O[C@H](CO)[C@@H](O)[C@@H]2O)[C@H](O)[C@@H](O)[C@@H]1O (some centres unmarked) [kojibiose]
phosphomolybdate assay and HPAEC-PAD, synthesis direction (HoGP; phosphorolysis and acceptor with βGlc1P): both breaking kojibiose down to glucose and βGlc1P and using it as acceptor

OC[C@H]1OC(O)[C@H](O)[C@@H](O)[C@@H]1O (some centres unmarked) [glucose]
phosphomolybdate assay and HPAEC-PAD, synthesis direction (MiGP): Apart from minor activity on glucose and galactose, MiGP prefers α-glucosidic disaccharides
phosphomolybdate assay and HPAEC-PAD, synthesis direction (TbGP; donor βGlc1P): In a reaction mixture of glucose and βGlc1P, TbGP produced trehalose

O=P(O)(O)OC[C@H]1OC(O)[C@H](O)[C@@H](O)[C@@H]1O (some centres unmarked) [glucose 6-phosphate]
phosphomolybdate assay and HPAEC-PAD, synthesis direction (CaGP; donor βGlc1P): trehalose 6-phosphate was produced from βGlc1P and glucose 6-phosphate

O=P(O)(O)O[C@@H]1O[C@H](CO)[C@@H](O)[C@H](O)[C@H]1O [βGlc1P]
phosphomolybdate assay and HPAEC-PAD, synthesis direction (TbGP; acceptor glucose): In a reaction mixture of glucose and βGlc1P, TbGP produced trehalose
phosphomolybdate assay and HPAEC-PAD, synthesis direction (CaGP; acceptor glucose 6-phosphate): trehalose 6-phosphate was produced from βGlc1P and glucose 6-phosphate
phosphomolybdate assay and HPAEC-PAD, synthesis direction (HoGP; acceptor kojibiose): In a reaction mixture that contained both kojibiose and βGlc1P, phosphorolytic and synthetic reactions co-occur

OC[C@H]1O[C@H](O[C@H]2[C@H](O)[C@@H](CO)OC(O)[C@@H]2O)[C@H](O)[C@@H](O)[C@@H]1O (some centres unmarked) [nigerose]
phosphomolybdate assay and HPAEC-PAD, synthesis direction (ChGP): ChGP elongated nigerose, and other disaccharides, to form α-1,3-oligoglucans
